Assay results as given in US10927096B2, “Ester substituted ion channel blockers and methods for use” (Nocion Therapeutics, Inc., priority 2019, dated 2021).

Tests used:
NaV1.7 [1] = biological target: T1, NaV1.7 (Homo sapiens, UniProt Q15858); test: Automated patch clamp (Qube 384), internal block of NaV1.7 in HEK293 cells; type: cell-based; conditions: compound in internal solution, read-out: NaV1.7 Intracellular Inhibition
T1 construct: expressed in transfected cells; host or cells: HEK293, tetracycline-inducible
Description: (§1) NaV1.7 was expressed in HEK293 cells upon induction with tetracycline. Cells were cultured in DMEM containing 10% dialyzed Fetal Bovine Serum (VWR, Radnor, Pa.), 1% Glutamax (VWR, Radnor, Pa.), 1% Penicillin-Streptomycin (VWR, Radnor, Pa.), 100 mg/L Hygromycin (Thermo Fisher Scientific, Waltham, Mass. and 5 mg/L Blasticidin (Alfa Aesar, Haverhill, Mass.). Cells were grown and maintained at 37° C. in a humidified environment containing 10% CO2 in air. Cells were detached from the culture flask for passage and harvested using 0.05% Trypsin-EDTA (Thermo Fisher Scientific, Waltham, Mass.). To induce NaV1.7, cells were induced with tetracycline (0.1-1 μg/mL, IBI Scientific, Peosta, Iowa) the day before recording.
(§2) Before experiments, cells were washed with DPBS (VWR, Radnor, Pa.), digested with Detachin (VWR Radnor, Pa.) and then triturated 10 times in CHO Serum-Free Media (VWR Radnor, Pa.) to resuspend the cells and to break apart cell aggregates. Cells were counted and the final concentration was set at 2-5 million cells per mL.
(§3) The intracellular solution contained the following: 140 mM CsF, 1 mM/5 mM EGTA/CsOH, 10 mM HEPES, 10 mM NaCl, adjusted to pH 7.3 with CsOH, and osmolality to 320 with sucrose. The external solution contained the following: 145 mM NaCl, 4 mM KCl, 1 mM MgCl2, 2 mM CaCl2, 10 mM HEPES, 10 mM Glucose, adjusted to pH 7.4 with CsOH and osmolality to 305 with sucrose. All chemicals are from Sigma-Aldrich, St. Louis, Mo. In order to test the degree of internal block by test compounds, the compounds were dissolved in internal solution at the indicated test concentration. […] In order to test the degree of external block by test compounds the compounds were dissolved in external solution at the indicated test concentration.
(§4) Automated Patch Clamps were performed on Qube 384 (Sophion Bioscience, Woburn Mass.) with multihole Qchips at a temperature setting of 22 degrees. The whole cells configuration was formed with default Qube seal and break-in parameter. The membrane potential was held at −100 mV before the voltage protocol began. Two voltage protocols were followed.
(§5) Step 1: Cells were held at −100 mV with a depolarized pulse to −20 mV for 10 ms, the interval was set at 5 s. Currents were corrected by default leak subtraction from every pulse. The duration was set at 5 mins.
(§6) Step 2: Cells were held at −100 mV with a depolarized pulse to −20 mV for 10 ms. The frequency was 5 Hz. Currents were corrected by leak subtraction calculated before step 2. The duration was set at 4 mins.
After Step 2, the Qchip was removed from the recording chamber. The internal solution was changed with solutions containing test compounds. Qchips were held at −100 mV without pulsing after being replaced in the recording chamber. The total solution switching time was 8 minutes. After the internal solution exchange, Cells were recorded and step 2 for repeated for 10 minutes.
Data analysis was performed by Sophion Analyzer. Cells were filtered with minimum 50 MOhm seal resistance and minimum 5 nA starting current. The rundown of the currents was corrected with control cells (Non-Drug). The remaining was calculated by averaging last 3 points in the end of experiments. The base line was calculated as the average of last 3 points of Step 2. IC50 curves were plotted with DR-plots/Hill function (a dose-response plot with a Hill fit).
Representative examples of the invention were tested for intracellular inhibition of NaV 1.7 in the automated patch clamp assay. Activity Range is reported as IC50: “++++” (<1 μM), “+++” (1-3 μM), “++” (3-10 μM) or “+” (10-30 μM).

NaV1.7 [2] = biological target: T1, NaV1.7; test: Automated patch clamp (Qube 384), external block of NaV1.7 in HEK293 cells; type: cell-based; conditions: compound in external solution, read-out: NaV1.7 Extracellular Inhibition
Description: as §1, §2, §3, §4, §5, §6
After Step 2, the external solution was changed with solutions containing test compounds. Qchips were held at −100 mV without pulsing. The total solution switching time was 8 minutes. After the external solution exchange, cells were recorded using the same procedure as step 2 for 10 minutes.
Data analysis was performed by Sophion Analyzer. Data were corrected with control cells (Non-Drug). The IC50 data were plotted with DR-plots/Hill function (a dose-response plot with a Hill fit).
Representative examples of the invention were tested for extracellular inhibition of NaV 1.7 in the automated patch clamp assay. Activity Range is reported as IC50: “++++” (<1 μM), “+++” (1-10 μM), “++” (10-30 μM) or “+” (>30 μM).

[3] = PAMPA membrane permeability assay; type: physicochemical; conditions: pH 7.4 buffer, GIT lipid, 4 hours incubation
Method in brief: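 Passive diffusion across a GIT-lipid-painted artificial membrane, with compounds at 50 uM in pH 7.4 buffer in the donor well and 4 h incubation. Donor, acceptor and reference solutions were quantified by UV spectra, and permeability coefficients (10^−6 cm/s) were derived from AUCs. Results are binned as + (<0.1), ++ (0.1-2.0), +++ (2.0-10.0), ++++ (>10.0).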

T1 sequence (Q15858 whole entry): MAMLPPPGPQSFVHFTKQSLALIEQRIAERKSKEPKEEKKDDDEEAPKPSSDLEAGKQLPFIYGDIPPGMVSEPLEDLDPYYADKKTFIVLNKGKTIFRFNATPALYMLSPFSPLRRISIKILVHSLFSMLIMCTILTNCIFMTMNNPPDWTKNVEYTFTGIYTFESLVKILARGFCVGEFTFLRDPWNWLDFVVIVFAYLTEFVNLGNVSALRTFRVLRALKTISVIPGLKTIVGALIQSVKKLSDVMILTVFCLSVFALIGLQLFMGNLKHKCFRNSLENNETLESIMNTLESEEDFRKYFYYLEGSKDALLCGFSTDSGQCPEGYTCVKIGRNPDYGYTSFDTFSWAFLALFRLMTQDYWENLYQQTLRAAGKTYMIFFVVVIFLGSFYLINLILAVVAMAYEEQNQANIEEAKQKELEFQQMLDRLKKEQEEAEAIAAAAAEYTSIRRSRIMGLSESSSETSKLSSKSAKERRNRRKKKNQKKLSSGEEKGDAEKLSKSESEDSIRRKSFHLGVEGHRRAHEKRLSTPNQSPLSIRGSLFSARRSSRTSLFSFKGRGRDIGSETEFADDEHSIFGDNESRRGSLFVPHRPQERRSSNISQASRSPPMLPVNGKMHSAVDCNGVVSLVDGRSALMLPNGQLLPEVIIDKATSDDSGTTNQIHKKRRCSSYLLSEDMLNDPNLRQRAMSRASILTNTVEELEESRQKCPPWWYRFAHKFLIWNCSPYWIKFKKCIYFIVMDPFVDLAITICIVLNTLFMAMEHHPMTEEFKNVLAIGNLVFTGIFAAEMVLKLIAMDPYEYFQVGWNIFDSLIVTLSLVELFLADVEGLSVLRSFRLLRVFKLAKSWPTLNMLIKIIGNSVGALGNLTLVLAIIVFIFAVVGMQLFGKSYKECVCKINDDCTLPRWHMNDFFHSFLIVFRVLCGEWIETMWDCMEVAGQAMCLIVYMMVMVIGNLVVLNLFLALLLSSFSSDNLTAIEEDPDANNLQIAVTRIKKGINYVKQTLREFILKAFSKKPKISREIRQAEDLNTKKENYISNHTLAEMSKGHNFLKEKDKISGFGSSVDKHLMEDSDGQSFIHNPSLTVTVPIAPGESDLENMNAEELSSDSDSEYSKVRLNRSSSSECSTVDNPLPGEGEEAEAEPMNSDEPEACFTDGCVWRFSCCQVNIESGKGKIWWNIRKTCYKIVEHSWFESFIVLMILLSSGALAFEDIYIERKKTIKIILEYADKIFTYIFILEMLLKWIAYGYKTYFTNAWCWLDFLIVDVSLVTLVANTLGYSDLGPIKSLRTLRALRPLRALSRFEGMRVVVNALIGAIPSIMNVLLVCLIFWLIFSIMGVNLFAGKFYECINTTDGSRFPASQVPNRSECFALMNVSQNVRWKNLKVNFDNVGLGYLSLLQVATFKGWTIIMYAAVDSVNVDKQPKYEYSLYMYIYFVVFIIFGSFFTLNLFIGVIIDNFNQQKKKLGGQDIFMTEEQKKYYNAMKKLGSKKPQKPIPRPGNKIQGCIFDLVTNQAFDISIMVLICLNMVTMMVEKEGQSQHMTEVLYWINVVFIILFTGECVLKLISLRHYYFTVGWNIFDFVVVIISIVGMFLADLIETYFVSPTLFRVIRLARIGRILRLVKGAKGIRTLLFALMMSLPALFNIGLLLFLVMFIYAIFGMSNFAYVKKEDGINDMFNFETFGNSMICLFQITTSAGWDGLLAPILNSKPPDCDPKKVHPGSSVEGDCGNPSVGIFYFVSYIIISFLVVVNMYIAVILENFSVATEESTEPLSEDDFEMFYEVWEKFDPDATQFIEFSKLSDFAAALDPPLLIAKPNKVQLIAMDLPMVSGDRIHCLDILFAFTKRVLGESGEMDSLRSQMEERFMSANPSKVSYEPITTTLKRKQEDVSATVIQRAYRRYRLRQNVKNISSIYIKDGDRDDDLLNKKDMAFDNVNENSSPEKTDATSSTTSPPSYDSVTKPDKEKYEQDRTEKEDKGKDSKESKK

IC50 (NaV1.7 [1]) | IC50 (NaV1.7 [2]) | PAMPA (10^−6 cm/s) [3] | SMILES
< 1000 nM | 1000 to 10000 nM | + (<0.1 10^−6 cm/s) | CCOC(=O)c1cccc(C)c1NC(=O)C[N+]1(Cc2ccccc2)CCCC1.[Br-] [Compound 9]
< 1000 nM | > 30000 nM | + (<0.1 10^−6 cm/s) | COC(=O)c1cccc(C)c1NC(=O)C[N+]1(Cc2ccccc2)CCCC(C(N)=O)C1.[Br-] (stereo not drawn) [Compound 30]
< 1000 nM | > 30000 nM | + (<0.1 10^−6 cm/s) | COC(=O)c1cccc(C)c1NC(=O)C[N+]1(Cc2ccccc2)CCCC(C(=O)NC(C)C)C1.[Br-] (stereo not drawn) [Compound 32]
1000 to 3000 nM | 10000 to 30000 nM | +++ (2.0-10.010^−6 cm/s) | COC(=O)c1cccc(C)c1NC(=O)C[N+]1(Cc2ccccc2)CCCC(C(=O)NCC(C)C)C1.[Br-] (stereo not drawn) [Compound 36]
3000 to 10000 nM | > 30000 nM | + (<0.1 10^−6 cm/s) | CC[N+]1(CC(=O)Nc2c(C)cccc2C(=O)OC)CCCC(C(N)=O)C1.[I-] (stereo not drawn) [Compound 55]

Second part, the molecule before the results:

SMILES | IC50 (NaV1.7 [1]) | IC50 (NaV1.7 [2]) | PAMPA (10^−6 cm/s) [3]
CC[N+]1(CC(=O)Nc2c(C)cccc2C(=O)OC)CCCC(C(=O)OCC(C)C)C1.[I-] (stereo not drawn) [Compound 23] | < 1000 nM | > 30000 nM | + (<0.1 10^−6 cm/s)
CC[N+]1(CC(=O)Nc2c(C)cccc2C(=O)OC)CCCC(C(=O)N2CCCCC2)C1.[I-] (stereo not drawn) [Compound 45] | < 1000 nM | > 30000 nM | + (<0.1 10^−6 cm/s)
CCC(C(=O)Nc1c(C)cccc1C(=O)OC)[N+]1(Cc2ccccc2)CCCCC1 (stereo not drawn) [Compound 57] | 1000 to 3000 nM | > 30000 nM | + (<0.1 10^−6 cm/s)
CCOC(=O)C[N+]1(CC(=O)Nc2c(C)cccc2C(=O)OC)CCCC(c2ccccc2)C1.O=C([O-])C(F)(F)F (stereo not drawn) [Compound 63] | < 1000 nM | 1000 to 10000 nM | +++ (2.0-10.010^−6 cm/s)
COC(=O)c1cccc(C)c1NC(=O)C[n+]1cccc(-c2ccccc2)c1.[Br-] [Compound 66] | < 1000 nM | 10000 to 30000 nM | + (<0.1 10^−6 cm/s)
COC(=O)c1cccc(C)c1NC(=O)C[n+]1cccn1C1CCCCC1.[Br-] [Compound 69] | < 1000 nM | > 30000 nM | ++ (0.1-2.0 10^−6 cm/s)
Cc1cccc(C(=O)OC(C)(C)C)c1NC(=O)C[n+]1cccc(-c2ccccc2)c1.[Br-] [Compound 71] | 1000 to 3000 nM | 1000 to 10000 nM | + (<0.1 10^−6 cm/s)
Cc1cccc(C(=O)OC(C)(C)C)c1NC(=O)C[n+]1cccn1C1CCCCC1.[Br-] [Compound 72] | 1000 to 3000 nM | 1000 to 10000 nM | + (<0.1 10^−6 cm/s)
